Entries after “also recorded” stand apart in the source; their conditions may differ.
What was measured:
[1] = tested on: BT549 human breast cancer cells; assay: WST-8 proliferation assay, BT549 (5 day); format: cell-based; conditions: BT-549, 120 h, GRP78 10 ug/ml, 5 days, read-out: Proliferation Inhibition (5 day) IC50, Breast Cancer BT549
Description: The inhibition effect of GRP78 antagonist on metastatic triple-negative, chemo-resistant BT549 cells was assessed using a proliferation assay.

[2] = tested on: mouse breast cancer cells, 4T1; assay: WST-8 proliferation assay, 4T1 (5 day); format: cell-based; conditions: 120 h, GRP78 10 ug/ml, 5 days, read-out: Proliferation Inhibition (5 day) IC50, Mouse Breast Cancer 4T1
[3] = tested on: chemo-resistant colon cancer cells (DLD-1); assay: WST-8 proliferation assay, DLD-1 (5 day); format: cell-based; conditions: Homo sapiens, DLD-1, 120 h; GRP78 10 ug/ml, 5 days; read-out: Proliferation Inhibition (5 day) IC50, Colon Cancer DLD-1
[4] = molecular target: T1, GRP78 (Homo sapiens, UniProt P11021); assay: GRP78 ELISA, direct binding of biotin-labelled kringles; conditions: FIG. 19A
T1 construct: purchased StressMarq
T1 sequence (P11021 19-654, species assumed): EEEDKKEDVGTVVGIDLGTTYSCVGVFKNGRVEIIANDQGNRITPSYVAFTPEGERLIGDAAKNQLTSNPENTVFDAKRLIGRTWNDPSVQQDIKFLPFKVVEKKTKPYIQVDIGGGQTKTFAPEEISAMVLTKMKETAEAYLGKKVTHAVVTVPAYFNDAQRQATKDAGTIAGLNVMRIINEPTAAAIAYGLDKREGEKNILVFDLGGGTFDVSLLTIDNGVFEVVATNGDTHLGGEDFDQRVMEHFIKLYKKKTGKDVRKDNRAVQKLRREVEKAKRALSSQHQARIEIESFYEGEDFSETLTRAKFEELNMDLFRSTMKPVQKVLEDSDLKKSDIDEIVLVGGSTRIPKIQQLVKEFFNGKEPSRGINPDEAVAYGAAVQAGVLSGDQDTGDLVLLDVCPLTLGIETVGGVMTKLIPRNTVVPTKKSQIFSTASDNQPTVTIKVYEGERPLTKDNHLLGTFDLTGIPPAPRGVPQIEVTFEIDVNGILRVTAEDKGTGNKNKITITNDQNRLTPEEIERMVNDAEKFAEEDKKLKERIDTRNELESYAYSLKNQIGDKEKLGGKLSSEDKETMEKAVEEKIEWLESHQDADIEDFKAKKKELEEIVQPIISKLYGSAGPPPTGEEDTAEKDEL
From the text: Recombinant K5-fragment biotin and Kr1 fragment-biotin were used for binding. Neutra-avidin-HRP was used to detect binding after washing with PBS.
To determine if ROR1 is expressed on immature dendritic cells, CD14^+ cells were isolated from human PBMCs and cultured in GM-CSF, and IL-4 for 7 days to produce immature DCs. […] This flow cytometry analysis supports the hypothesis that immature dendritic cells express ROR1 in which the ROR1 kringle domain binds to GRP78.
Comparison of GRP78 binding for the two kringle domains was performed by a GRP78 ELISA. GRP78 (StressMarq) (1 ug/ml@ 100 μl/well) was bound to a tissue culture coated 96 well plate overnight at 4° C. After washing 3× with PBS, the plates were blocked with superblock (Pierce) for 1 hour at room temperature. […] The plate was then washed 3× with PBS again and Neutra-avidin-HRP was added to the wells for 1 hour at room temperature. The wells were washed again with PBS and one step TMB (Pierce) was added to the wells with absorbance recorded after 30 minutes to measure kringle binding. […] To analyze these peptides for binding to GRP78, we used a 96 well competition binding assay. The assay consisted of binding GRP78 to a tissue coated 96 well plate as listed above. […] After the plate was washed, Neutra-avidin-HRP was added and bound K5 was measured by adding HRP substrate, TMB, as listed above.

[5] = tested on: D54 glioma cells; assay: Tumor cell proliferation assay 72 hours, D54; format: cell-based
Description: (§1) For the proliferation assay, cells were plated in 96 well plates at approximately 3000 cells per well overnight. The media was removed and fresh media with 1% FBS containing 10 μg/ml GRP78 was added along with the GRP78 antagonists. The plates were incubated for 72 hours at 37 C in 8% CO2. After 72 hours, cell number was determined with a WST-8 cell proliferation kit (Sigma). […] The only tumor cell line tested to not be inhibited by GRP78 antagonists was HT29, a colon carcinoma cell line. From our previous data above, we know U87 and D54 have ROR1 expressed on their cell surfaces.

[6] = tested on: Calu 6 lung carcinoma cells; assay: Tumor cell proliferation assay 72 hours, Calu 6; format: cell-based
Description: as §1

[7] = tested on: MDA231 breast carcinoma cells; assay: Tumor cell proliferation assay 72 hours, MDA231; format: cell-based
Description: as §1

[8] = tested on: U87 glioma cells; assay: Tumor cell proliferation assay 72 hours, U87; format: cell-based
Description: as §1

[9] = tested on: HT29 colon carcinoma cells; assay: Tumor cell proliferation assay 72 hours, HT29; format: cell-based
Description: as §1

[10] = tested on: 293 Kidney fibroblasts; assay: Proliferation assay 72 hours, 293 kidney normal cells; format: cell-based, human
Description: as §1

[11] = tested on: panel of tumor cells; assay: Tumor cell proliferation assay 72 hours, whole panel; format: cell-based; conditions: in words
Description: as §1

[12] = tested on: GRP78 treated dendritic cells; assay: Tolerogenic phenotype of GRP78 treated dendritic cells (flow cytometry, IL-10 ELISA); format: cell-based, human; conditions: for maturity marker CD86 on DCs exposed to GRP78/LPS: FIG. 13; for activity for reversing the tolerogenic phenotype of dendritic cells induced by GRP78: dose dependent, in words; for potency in blocking B7H3 on DCs exposed to GRP78, relative to K5: flow cytometry, FIG. 9A
Description: Consequently surface GRP78 binding on tumor cells leads to chemo-resistance and proliferation. […] Immature dendritic cells were differentiated from isolated CD14^+ myeloid cells with the addition of GM-CSF and IL-4 for 7 days. GRP78 (10 μg/ml) was added to the cells to produce a tolerogenic phenotype showing up regulation of PD-L1, B7H4, B7H3, IL-10 and down regulation of CD86. Therefore our GRP78 antagonists can potently block the activity of GRP78 on dendritic cells.
FIG. 9A-9C illustrates increasing amounts of the GRP78 antagonists result in blocking GRP78 which reduces checkpoint protein expression on DCs. A tolerogenic dendritic cell phenotype is induced by soluble GRP78 binding. Myeloid CD14+ cells were co-stimulated for 7 days with IL-4, and GMCSF. On day 5 LPS along with or without GRP78 and GRP78 antagonists were added. On day 8, dendritic cells were fixed and stained for flow cytometry. The percent of B7H3, PD-L1, CD86 was measured by flowcytometry and compared to GRP78 untreated dendritic cells.
To determine if GRP78 antagonists can block the tolerogenic phenotype of GRP78 treated dendritic cells, we differentiated immature dendritic cells. From 20 million human pooled PBMCs (AllCells), we isolated about 2.5 million CD14+ monocytes using positive selection with a pluribead CD14 kit (Pluriselect). […] From our multiple studies, we can isolate about 2.5 million CD14+ monocytes from 20 million PBMCs using positive selection with pluribeads (Pluriselect). […] On day 8, cells were fixed and aliquots stained at 4 C for various tolerogenic DC markers: PD-I([…]), B7H4, […], CD86, CD14, ROR1. Stained cells were analyzed byflow cytometry analysis. All antibodies for the DC markers were PE labeled from BD PharMingen. The cytokine, IL-10 (ENZO Life Sciences), was assayed by ELISA (Sigma). Negative controls wells were with GRP78 and positive controls are without GRP78 but with LPS. […] All of these antagonists decreased expression of PD-L1, B7H4, B7H3, and IL-10 from mature dendritic cells and increased expression of the maturity marker CD86 on dendritic cells (FIGS. 9A-9C).

[13] = molecular target: T2, ROR1 binding to GRP78 (Homo sapiens, UniProt P11021); assay: Immunoprecipitation of ROR1 using GRP78-Biotin from D54 glioma cell lysate; conditions: D54 glioma cell-surface lysate, 100 nM, FIG. 5
T2 construct: purchased StressMarq; host or cells: ROR1 is endogenous, from D54 glioma cell lysate
T2 sequence (P11021 19-654): as the sequence (P11021 19-654, species assumed) above
From the text: The use of GRP78/ROR1 antagonists to break immune tolerance for the treatment of resistant cancers represents a major shift in cancer therapies. Few, if any, current anti-cancer therapies have anti-angiogenic, anti-tumor and immune modulatory activities similar to modified ROR1, ROR2, and K5 kringle domains. To understand what pathways could be responsible for these activities in tumor and dendritic cells, we used GRP78 binding and crosslinking pull down studies against the cell surface proteome of D54 glioma cells and dendritic cells. We have identified that ROR1 and ROR2 as a cell GRP78 surface receptor.
Since the mechanism of action is inconclusive for soluble, surface bound GRP78, we decided to identify the surface receptor for GRP78 on glioma (D54) cells. Using GRP78 (StressMarq) labeled with Biotin (Sigma, Mix-n-Match), pull down experiments were performed. 2×10(6) D54 glioma cells were grown in a T25 cm flask with full DMEM media overnight. The next day the media was removed and the cells were washed with ice cold PBS. To the attached cells ice cold octyl-lysis buffer (Pierce detergent cell lysis kit) was added and the cells were scrapped off and incubated in a tube with gentle agitation at 4 C for 60 minute. The microcentrifuge tube was centrifuged at 12,000×g for 20 minutes. The supernatant was gently removed and placed on ice. […]

[14] = listed as Kr1(1-91 Active Zone)frag SEQ ID NO: 19

COc1cccc2c1C(=O)c1c(O)c3c(c(O)c1C2=O)C[C@@](O)(C(=O)CO)C[C@@H]3O[C@H]1C[C@H](N)[C@H](O)[C@H](C)O1 [Doxorubicin]
IC50 [1]: 2440 nM | IC50 [2]: 7 nM | IC50 [3]: 7 nM

Kr1(1-91 Active Zone)frag SEQ ID NO:19: ROR1 kringle domain (amino acids 308-400 ROR1), expressed in 293T cells
binding range to GRP78 [4]: pM range | % Proliferation Inhibition ([5]; D54, 0.1 μg/ml): 15 ± 3% | % Proliferation Inhibition ([5]; D54, 1 μg/ml): 52 ± 6% | % Proliferation Inhibition ([5]; D54, 10 μg/ml): 85 ± 3% | % Proliferation Inhibition ([6]; Calu 6, 0.1 μg/ml): 14 ± 2% | % Proliferation Inhibition ([6]; Calu 6, 1 μg/ml): 31 ± 5% | % Proliferation Inhibition ([6]; Calu 6, 10 μg/ml): 60 ± 5% | % Proliferation Inhibition ([7]; MDA231, 0.1 μg/ml): 33 ± 8% | % Proliferation Inhibition ([7]; MDA231, 1 μg/ml): 63 ± 12% | % Proliferation Inhibition ([7]; MDA231, 10 μg/ml): 86 ± 10% | % Proliferation Inhibition ([8]; U87, 0.1 μg/ml): 12 ± 7% | % Proliferation Inhibition ([8]; U87, 1 μg/ml): 45 ± 7% | % Proliferation Inhibition ([8]; U87, 10 μg/ml): 82 ± 8% | % Proliferation Inhibition ([9]; HT29, 0.1 μg/ml): 0 ± 8% | % Proliferation Inhibition ([9]; HT29, 1 μg/ml): 10 ± 9% | % Proliferation Inhibition ([9]; HT29, 10 μg/ml): 0 ± 5% | % Proliferation Inhibition ([10]; 0.1 μg/ml): 0 ± 5% | % Proliferation Inhibition ([10]; 1 μg/ml): 0 ± 6% | % Proliferation Inhibition ([10]; 10 μg/ml): 0 ± 7% | inhibition of tumor cell proliferation [11]: potent dose response inhibition | potency of inhibition of tumor cell proliferation relative to K5 [11]: several fold more potent | IL-10 expression of tolerogenic dendritic cells ([12]; 100 nM, FIG. 10): elimination of IL-10 expression | maturity marker CD86 on DCs exposed to GRP78/LPS [12]: completely reverses; also recorded: increases in the maturity marker CD86 | maturity marker CD86 on DCs exposed to GRP78/LPS [12, 14]: increases in the maturity marker CD86 | activity for reversing the tolerogenic phenotype of dendritic cells induced by GRP78 [12]: potent nM activity | activity for reversing the tolerogenic phenotype of dendritic cells induced by GRP78 [12, 14]: reverses | potency in blocking B7H3 on DCs exposed to GRP78, relative to K5 [12]: at least 65 times | potency in blocking B7H3 on DCs exposed to GRP78, relative to K5 [12, 14]: more potent | percentage of B7H4+ marker on GRP78 treated DCs ([12]; increasing concentrations, FIGS. 11, 12): decreasing percentages

B1: unfolded K5: unfolded K5(3-89 Active Zone)frag SEQ ID NO:1 kringle, control (protein)
chain: SEEDCMFGNGKGYRGKRATTVTGTPCQDWAAQEPHRHSIFTPETNPRAGLEKNYCRNPDGDVGGPWCYTTNPRKLYDYCDVPQCAAPKS
modifications: unfolded; Synthetic Peptide K5(3-89 Active Zone)
blocking of immunoprecipitation of ROR1 using GRP78 [13]: not

From patent US10905750B2, “GRP78 antagonist that block binding of receptor tyrosine kinase orphan receptors as immunotherapy anticancer agents” (CREATIVE BIOTHERAPEUTICS, LLC, priority 2017, dated 2021)
